# Data reported in PubChem BioAssay (NCI).
#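 Test compounds were applied to cells in 96-well plates for 48 hours at 5 doses. The concentration for 50% growth inhibition is given as GI50. TGI marks complete inhibition of growth.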
# Experiments:
# Assay in all cases: DTP human tumour cell line panel, 48 h
# DU-145 prostate = test system: DU-145 prostate
# RPMI-8226 leukemia = test system: RPMI-8226 leukemia
# HL-60(TB) leukemia = test system: HL-60(TB) leukemia
# A498 renal = test system: A498 renal
# SF-295 CNS = test system: SF-295 CNS
# SR leukemia = test system: SR leukemia
# CCRF-CEM leukemia = test system: CCRF-CEM leukemia
# TK-10 renal = test system: TK-10 renal
# SN12C renal = test system: SN12C renal
# SK-MEL-2 melanoma = test system: SK-MEL-2 melanoma
# NCI/ADR-RES ovarian = test system: NCI/ADR-RES ovarian
# HS 578T breast = test system: HS 578T breast
# KM12 colon = test system: KM12 colon
# MALME-3M melanoma = test system: MALME-3M melanoma
# OVCAR-4 ovarian = test system: OVCAR-4 ovarian
# SK-OV-3 ovarian = test system: SK-OV-3 ovarian
# EKVX NSCLC = test system: EKVX NSCLC
# COLO 205 colon = test system: COLO 205 colon
# SK-MEL-28 melanoma = test system: SK-MEL-28 melanoma
# SW-620 colon = test system: SW-620 colon
# NCI-H460 lung = test system: NCI-H460 lung
# K-562 leukemia = test system: K-562 leukemia
# OVCAR-8 ovarian = test system: OVCAR-8 ovarian
# HCT-116 colon = test system: HCT-116 colon
# HT29 colon = test system: HT29 colon
# NCI-H23 lung = test system: NCI-H23 lung
# RXF 393 renal = test system: RXF 393 renal
# SF-268 CNS = test system: SF-268 CNS
# ACHN renal = test system: ACHN renal
# T-47D breast = test system: T-47D breast
compound,measurement,setting,value
O=C(N/N=C/c1ccc(B(O)O)s1)c1[nH]c2ccc(Br)cc2c1-c1ccccc1,GI50,DU-145 prostate,367 nM
same,TGI,DU-145 prostate,11600 nM
same,GI50,RPMI-8226 leukemia,521 nM
same,TGI,RPMI-8226 leukemia,> 52300 nM
same,GI50,HL-60(TB) leukemia,230 nM
same,TGI,HL-60(TB) leukemia,659 nM
same,GI50,A498 renal,8500 nM
same,TGI,A498 renal,21600 nM
same,GI50,SF-295 CNS,299 nM
same,TGI,SF-295 CNS,5380 nM
same,GI50,SR leukemia,364 nM
same,TGI,SR leukemia,14300 nM
same,GI50,CCRF-CEM leukemia,366 nM
same,TGI,CCRF-CEM leukemia,12600 nM
same,GI50,TK-10 renal,7960 nM
same,TGI,TK-10 renal,22900 nM
same,GI50,SN12C renal,374 nM
same,TGI,SN12C renal,8110 nM
same,GI50,SK-MEL-2 melanoma,432 nM
same,TGI,SK-MEL-2 melanoma,14000 nM
same,GI50,NCI/ADR-RES ovarian,238 nM
same,TGI,NCI/ADR-RES ovarian,587 nM
same,GI50,HS 578T breast,296 nM
same,TGI,HS 578T breast,3440 nM
same,GI50,KM12 colon,342 nM
same,TGI,KM12 colon,4900 nM
same,GI50,MALME-3M melanoma,512 nM
same,TGI,MALME-3M melanoma,21100 nM
same,GI50,OVCAR-4 ovarian,3560 nM
same,TGI,OVCAR-4 ovarian,24100 nM
same,GI50,SK-OV-3 ovarian,691 nM
same,TGI,SK-OV-3 ovarian,15000 nM
same,GI50,EKVX NSCLC,425 nM
same,TGI,EKVX NSCLC,11200 nM
same,GI50,COLO 205 colon,231 nM
same,TGI,COLO 205 colon,515 nM
same,GI50,SK-MEL-28 melanoma,856 nM
same,TGI,SK-MEL-28 melanoma,16700 nM
same,GI50,SW-620 colon,395 nM
same,TGI,SW-620 colon,14800 nM
same,GI50,NCI-H460 lung,363 nM
same,TGI,NCI-H460 lung,4100 nM
same,GI50,K-562 leukemia,354 nM
same,TGI,K-562 leukemia,16300 nM
same,GI50,OVCAR-8 ovarian,272 nM
same,TGI,OVCAR-8 ovarian,816 nM
same,GI50,HCT-116 colon,331 nM
same,TGI,HCT-116 colon,4340 nM
same,GI50,HT29 colon,290 nM
same,TGI,HT29 colon,992 nM
same,GI50,NCI-H23 lung,378 nM
same,TGI,NCI-H23 lung,13200 nM
same,GI50,RXF 393 renal,343 nM
same,TGI,RXF 393 renal,13600 nM
same,GI50,SF-268 CNS,515 nM
same,TGI,SF-268 CNS,10200 nM
same,GI50,ACHN renal,512 nM
same,TGI,ACHN renal,14000 nM
same,GI50,T-47D breast,3740 nM
